Laboratory results taken from the OligoGym collection.
Several values for one entry are separate records, joined by “and”; a condition that tells them apart may be missing. Equal entries are not always repeated. After the bases stand the sugars from the 5' end (letter, count) and the backbone: PS all phosphorothioate, else s phosphorothioate and o phosphodiester by linkage. Methylation of C is not given here. e = 2'-O-(2-methoxyethyl) (MOE); d = 2'-deoxy (DNA)

Target: DGAT2
Conditions: ASO

| Sequence | target mRNA inhibition (HepG2, 2.5 µM) | target mRNA inhibition (HepG2, 10 µM) | target mRNA inhibition (HepG2, 0.12 µM) | target mRNA inhibition (HepG2, 20 µM) |
| --- | --- | --- | --- | --- |
| CCCAACCTTTAAGGCCTATC (sugars e5 d10 e5, PS) | 46% | 85% | – | – |
| CCCACAGAAGAGCAAAGGCT (sugars e5 d10 e5, PS) | 76% and 74% | 94% and 92% | – | – |
| CCCAGGAGCCCTCCTCGAAG (sugars e5 d10 e5, PS) | – | – | 54% | – |
| CCCCCACTGTCAGTCTCTCC (sugars e5 d10 e5, PS) | 37% | 76% | – | – |
| CCCCTCGCGCGACAGCGCAG (sugars e5 d10 e5, PS) | – | – | 25% | – |
| CCCTGGGACTCAGTGTCCTC (sugars e5 d10 e5, PS) | 90% | 83% | – | – |
| CCCTTGCGGTTCCGCAGGGT (sugars e5 d10 e5, PS) | – | – | 36% | – |
| CCGCGCAGGACCCCGGAGTA (sugars e3 d14 e3, PS) | – | – | 71% | – |
| CCGCGCAGGACCCCGGAGTA (sugars e5 d10 e5, PS) | – | – | 75% | – |
| CCTACAGCAGAGGGAAGATG (sugars e5 d10 e5, PS) | – | – | 13% | – |
| CCTGCAGAAAAAGCAACCAA (sugars e5 d10 e5, PS) | 30% | 75% | – | – |
| CCTGCTTGTACACTTCATTC (sugars e5 d10 e5, PS) | 51% | 87% | – | – |
| CCTGGACAAGTCCTGCCCAT (sugars e5 d10 e5, PS) | – | – | 73% | – |
| CCTGTAGCTGCTTTTCCACC (sugars e5 d10 e5, PS) | – | – | 29% | – |
| CGACAGCGCAGGTCCTCCGT (sugars e5 d10 e5, PS) | – | – | 48% | – |
| CGATTCACTGAGGACCTCAG (sugars e5 d10 e5, PS) | 79% | 61% | – | – |
| CGCAGGACCCCGGAGTAGGC (sugars e3 d14 e3, PS) | – | – | 65% | – |
| CGCAGGGCCAGTTTCACAAA (sugars e5 d10 e5, PS) | – | – | 31% | – |
| CGCGATTCACTGAGGAC (sugars e3 d10 e4, PS) | 73% and 74% | – | – | – |
| CGGACTGAATGTCACCTCTT (sugars e5 d10 e5, PS) | 74% and 73% | 90% and 76% | – | – |
| CGGAGAGGATGCTGGATCCA (sugars e5 d10 e5, PS) | – | – | 47% | – |
| CGTGAGCTGGTGTTCTACAA (sugars e5 d10 e5, PS) | 59% | 74% | – | – |
| CTCAGTTCTTCCAACCAGTG (sugars e5 d10 e5, PS) | 83% and 68% | 93% and 91% | – | – |

| Sequence | target mRNA inhibition (HepG2, 2.5 µM) | target mRNA inhibition (HepG2, 10 µM) | target mRNA inhibition (HepG2, 0.12 µM) | target mRNA inhibition (HepG2, 20 µM) |
| --- | --- | --- | --- | --- |
| CTCCCATTCTTTGAAAGCAA (sugars e5 d10 e5, PS) | 30% | 54% | – | – |
| CTCCTCCCCTTGGCAGAGAA (sugars e5 d10 e5, PS) | – | – | 43% | – |
| CTCTCATTTCTTATCTTCAA (sugars e5 d10 e5, PS) | 70% | 93% | – | – |
| CTCTCCAACTCCTCCCCTTG (sugars e5 d10 e5, PS) | – | – | 25% | – |
| CTGACATGGTAAGTCCTGAT (sugars e5 d10 e5, PS) | 76% and 52% | 93% and 89% | – | – |
| CTGGACAAGTCCTGCCCATC (sugars e3 d14 e3, PS) | – | – | 67% | – |
| CTGGAGGCCAGTCCAGGCTC (sugars e5 d10 e5, PS) | – | – | 23% | – |
| CTGGCTCAGTTCACCTCCAG (sugars e5 d10 e5, PS) | – | – | 90% | – |
| CTGTGACCTCCTGCCACCTT (sugars e5 d10 e5, PS) | – | – | 25% | – |
| CTTACTGTTCAGCAGTCTGC (sugars e5 d10 e5, PS) | 57% | 90% | – | – |
| CTTCACCAGGGCCTCCATGT (sugars e5 d10 e5, PS) | 10% | 66% | 46% | 87% |
| CTTGCCAGGCATGGAGCTCA (sugars e5 d10 e5, PS) | – | – | 51% | – |
| CTTGGAGTAGGGCACCAGCC (sugars e5 d10 e5, PS) | – | – | 35% | – |
| CTTTGAGCATCCCCAATCCC (sugars e5 d10 e5, PS) | 14% | 75% | – | – |
| GAAACAGGCAGTAGGAAATC (sugars e5 d10 e5, PS) | – | – | 23% | – |
| GACCCACTGGAGCACTGAGA (sugars e2 d13 e5, PS) | – | – | 70% | – |
| GACTGCATTCTTGCCAGGCA (sugars e5 d10 e5, PS) | – | – | 60% | – |
| GAGCACAGCGATGAGCCAGC (sugars e5 d10 e5, PS) | 43% | 91% | – | – |
| GAGCAGGTTCATCTGCCTTG (sugars e5 d10 e5, PS) | 81% and 61% | 92% and 83% | – | – |
| GAGGAGTTCTCGAATATCCC (sugars e5 d10 e5, PS) | 43% | 80% | – | – |
| GAGGCTCAGGCCTTGACAAC (sugars e5 d10 e5, PS) | – | – | 12% | – |
| GATATAGTTCCTGGTGGTCA (sugars e5 d10 e5, PS) | – | – | 57% | – |
| GCAATGTTGCCATCATACTA (sugars e5 d10 e5, PS) | 63% | 88% | – | – |

| Sequence | target mRNA inhibition (HepG2, 2.5 µM) | target mRNA inhibition (HepG2, 10 µM) | target mRNA inhibition (HepG2, 0.12 µM) | target mRNA inhibition (HepG2, 20 µM) |
| --- | --- | --- | --- | --- |
| GCACATCTCTTCCATCTCCA (sugars e5 d10 e5, PS) | 74% | 92% | – | – |
| GCACTCTGTGATGCTCTGGA (sugars e5 d10 e5, PS) | – | 90% and 84% | – | – |
| GCAGCCTACAAGAGCCTGTT (sugars e5 d10 e5, PS) | 59% | 89% | – | – |
| GCAGGTTGTGTGTCTTCACC (sugars e5 d10 e5, PS) | – | – | 65% and 73% | – |
| GCATGAACAAGGGCAAGTCC (sugars e5 d10 e5, PS) | 79% | 89% | – | – |
| GCATGGAGCTCAGAGACTCA (sugars e2 d13 e5, PS) | – | – | 77% | – |
| GCATGGAGCTCAGAGACTCA (sugars e3 d14 e3, PS) | – | – | 51% | – |
| GCATTGCCACTCCCATTCTT (sugars e2 d13 e5, PS) | – | – | 61% | – |
| GCATTGCCACTCCCATTCTT (sugars e3 d14 e3, PS) | – | – | 85% | – |
| GCATTTTAACAAGATCCCCA (sugars e5 d10 e5, PS) | – | – | 34% | – |
| GCCACCCCCATCCTCATCCT (sugars e5 d10 e5, PS) | – | – | 0% | – |
| GCCAGAGTTATCCTCAATTC (sugars e5 d10 e5, PS) | 89% | 78% | – | – |
| GCCAGTGTAGCCAGGTAAGG (sugars e5 d10 e5, PS) | – | – | 9% | – |
| GCCCAATATCTGATATCAAA (sugars e5 d10 e5, PS) | 80% and 69% | 89% and 84% | – | – |
| GCCCAGTTTCGGACCCACTG (sugars e3 d14 e3, PS) | – | – | 81% | – |
| GCCGTATGCCTGGGAACTTC (sugars e5 d10 e5, PS) | – | – | 29% | – |
| GCCTCCATGTACATGGTGTG (sugars e5 d10 e5, PS) | – | – | 63% | – |
| GCCTGGACAAGTCCTGC (sugars e3 d10 e4, PS) | 68% and 75% | 89% and 97% | – | – |
| GCGCAGGACCCCGGAGTAGG (sugars e2 d13 e5, PS) | – | – | 72% | – |
| GCGCAGGACCCCGGAGTAGG (sugars e5 d10 e5, PS) | – | – | 79% | – |
| GCTAAGGAAAACTTAGGCAT (sugars e5 d10 e5, PS) | 56% | 89% and 85% | – | – |
| GCTATAGAATCAGACAGACC (sugars e5 d10 e5, PS) | – | – | 46% | – |
| GCTCAGAGACTCAGCCGCAC (sugars e2 d13 e5, PS) | 13% | 35% | 82% | 66% |

| Sequence | target mRNA inhibition (HepG2, 2.5 µM) | target mRNA inhibition (HepG2, 10 µM) | target mRNA inhibition (HepG2, 0.12 µM) | target mRNA inhibition (HepG2, 20 µM) |
| --- | --- | --- | --- | --- |
| GCTCAGTTCTTCCAACCAGT (sugars e5 d10 e5, PS) | 87% and 86% | 94% and 93% | – | – |
| GCTCATGAGAAGCTTAGAAG (sugars e5 d10 e5, PS) | 66% | 86% | – | – |
| GCTGAGAGAGACAATGAGTA (sugars e5 d10 e5, PS) | – | – | 54% | – |
| GCTGATTACAAGCTGATTCT (sugars e5 d10 e5, PS) | 59% | 76% | – | – |
| GCTGGATGGGAAAGTAGTCT (sugars e5 d10 e5, PS) | – | – | 22% | – |
| GCTTACCAACAGTGGTGATG (sugars e5 d10 e5, PS) | – | – | 21% | – |
| GCTTATCCTTGAGGGTCTCA (sugars e5 d10 e5, PS) | 82% and 77% and 88% | 94% and 89% and 95% | – | – |
| GCTTCAATAAATACCTTATC (sugars e5 d10 e5, PS) | 84% and 74% | 92% and 97% | – | – |
| GCTTCTTGGGCATCTGCTAG (sugars e5 d10 e5, PS) | 74% | 82% | – | – |
| GGACACCTGGAGCTGCGGCC (sugars e5 d10 e5, PS) | 35% | 73% | – | – |
| GGACAGAGGTTCAACATCCA (sugars e5 d10 e5, PS) | 58% | 89% | – | – |
| GGAGTTCTCGAATATCCCTA (sugars e5 d10 e5, PS) | 74% and 82% and 85% | 90% and 94% | – | – |
| GGATGCTGGATCCAGTGCCC (sugars e5 d10 e5, PS) | – | – | 32% | – |
| GGCAGAGAAACTGGTCCTGC (sugars e5 d10 e5, PS) | 55% | 81% | – | – |
| GGCAGGGCTTAGAATGGCTA (sugars e5 d10 e5, PS) | – | – | 48% | – |
| GGCATGGAGCTCAGAGACTC (sugars e5 d10 e5, PS) | 25% | 76% | 77% | 49% |
| GGCCAAGGCTGAGTCTGTGC (sugars e5 d10 e5, PS) | – | – | 17% | – |
| GGCCCAACCCCCTCAGGAAG (sugars e5 d10 e5, PS) | – | – | 19% | – |
| GGCCTTGGCTGCAAGCTCTG (sugars e5 d10 e5, PS) | 52% | 67% | – | – |
| GGCTGTCAGAGGCTACTGGC (sugars e5 d10 e5, PS) | 74% | 63% | – | – |
| GGCTTCACCGTCCCACAGCA (sugars e5 d10 e5, PS) | – | – | 39% | – |
